Test systems include 786-0; COLO 205; EKVX; HOP-62; HOP-92; Hs-578T; IGROV-1; KM12; MCF7; Malme-3M; NCI-H226; NCI-H522; OVCAR-5; RPMI-8226; SF-539; SK-OV-3; SNB-19; T47D; OVCAR-4.
Common to all, as to experiment: inhibition of tumour cell growth, NCI panel, 48 h

Counter-ions that a name gives are not always drawn.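 Protocol summary: plate cells (96-well), add compound at 5 concentrations, incubate 48 h, interpolate endpoints linearly. GI50 marks 50% less growth.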 Active and inactive are the calls of the source. Rule as the data show it: active = GI50 up to about 1.1 µM and inactive = higher.

Data on eight molecules can be found in ChEMBL document CHEMBL1201862, “PubChem BioAssay data set” (2004).

For the molecule `Cc1ccc(S(=O)(=O)N/N=C2/CC3CCC4CC2CC34)cc1` (stereo not given), the GI50 in the experiment with 786-0 was > 100 µM (inactive); in the experiment on COLO 205, 55 µM (inactive); in the experiment on EKVX, 61.5 µM (inactive); in the experiment with HOP-62, > 100 µM (inactive); with HOP-92, > 100 µM (inactive); in the experiment with Hs-578T, 88.3 µM (inactive). Moreover, the GI50 in the experiment on IGROV-1, in the experiment with KM12, with MCF7, with Malme-3M, in the experiment with NCI-H226 and in the experiment on NCI-H522 was > 100 µM (inactive) throughout. In addition, the GI50 in the experiment with OVCAR-5 is > 100 µM (inactive); with RPMI-8226, > 100 µM (inactive); with SF-539 it was > 100 µM (inactive); with SK-OV-3, > 100 µM (inactive); in the experiment on SNB-19, > 100 µM (inactive); in the experiment with T47D, 81.1 µM (inactive).
For `CCc1ccc2c(c1)/C(=C1/Nc3ccccc3C1=O)C(=O)N2`, the GI50 is 5.78 µM (inactive) in the experiment with 786-0; 14.5 µM (inactive) in the experiment with COLO 205; 5.36 µM (inactive) in the experiment with EKVX; 14.2 µM (inactive) in the experiment on HOP-62; 33.3 µM (inactive) with HOP-92; 11 µM (inactive) in the experiment with Hs-578T. For the same molecule, the GI50 was 0.124 µM (active) in the experiment on IGROV-1; 0.428 µM (active) with KM12; 1.78 µM (inactive) in the experiment on MCF7; 35.4 µM (inactive) in the experiment on Malme-3M; 18.7 µM (inactive) in the experiment with NCI-H226; 19.5 µM (inactive) in the experiment with NCI-H522. In addition, the GI50 in the experiment on OVCAR-4 is 7.82 µM (inactive); with OVCAR-5 it was 44.9 µM (inactive); with RPMI-8226, > 100 µM (inactive); in the experiment with SK-OV-3, 10.3 µM (inactive); in the experiment on SNB-19, 11 µM (inactive); in the experiment with T47D, 4.65 µM (inactive).
Consider `COC(=O)c1c(C)cccc1C1CN=NC12Cc1ccc(C)cc1C2=O` (stereo not given), for which the GI50 was 71.3 µM (inactive) with 786-0; 26.7 µM (inactive) in the experiment on EKVX; 52.7 µM (inactive) in the experiment with HOP-62; 23.8 µM (inactive) in the experiment with HOP-92; 39.4 µM (inactive) in the experiment on Hs-578T; 52 µM (inactive) with IGROV-1. For the same molecule, the GI50 with KM12 is 47.9 µM (inactive); in the experiment on MCF7, 37.2 µM (inactive); in the experiment with Malme-3M, 33.2 µM (inactive); in the experiment on NCI-H226, 44.4 µM (inactive); with NCI-H522, 29.4 µM (inactive); in the experiment on OVCAR-4, 48.8 µM (inactive). For the same molecule, the GI50 in the experiment on OVCAR-5 is > 100 µM (inactive); with RPMI-8226 it was 25.6 µM (inactive); in the experiment on SF-539 it was 47 µM (inactive); with SNB-19 it was 38.1 µM (inactive); in the experiment on T47D it was 17.1 µM (inactive).
On to `CC(=O)NC(Cc1c[nH]c2ccccc12)C(=O)O` (stereo not given), for which the GI50 with 786-0, in the experiment with COLO 205, in the experiment on EKVX, in the experiment on HOP-62, in the experiment on HOP-92 and in the experiment with Hs-578T was > 100 µM (inactive) in each case. Further, the GI50 in the experiment on IGROV-1, with KM12, in the experiment with MCF7, in the experiment on Malme-3M, in the experiment on NCI-H226 and with NCI-H522 was > 100 µM (inactive) throughout. For the same molecule, the GI50 with OVCAR-4, with OVCAR-5, in the experiment on RPMI-8226, in the experiment on SK-OV-3, in the experiment with SNB-19 and with T47D was > 100 µM (inactive) throughout.
As for `COC1(C2c3ccccc3CCN2C(=O)OC(C)(C)C)C(=O)C(c2ccccc2)=C1N(C)C` (stereo not given), the GI50 in the experiment with 786-0 is 26.9 µM (inactive); in the experiment on COLO 205, 18.5 µM (inactive); with EKVX, 40.6 µM (inactive); with HOP-62 it was 37 µM (inactive); in the experiment with HOP-92, 44.8 µM (inactive); with Hs-578T, 32.7 µM (inactive). Also, the GI50 with KM12 is 34.4 µM (inactive); with MCF7 it was 44.8 µM (inactive); in the experiment with Malme-3M, 35.2 µM (inactive); in the experiment with NCI-H226 it was 19.7 µM (inactive); in the experiment with NCI-H522, 21.2 µM (inactive); in the experiment on OVCAR-4 it was 46.9 µM (inactive). The GI50 in the experiment on OVCAR-5 was 74.5 µM (inactive); in the experiment on SF-539, 19.1 µM (inactive); in the experiment with SK-OV-3, 37.9 µM (inactive); in the experiment on SNB-19 it was 27.5 µM (inactive); in the experiment on T47D, 53.7 µM (inactive).
Consider `CN(C)CCOC(c1ccccc1)c1ccccc1` [DIPHENHYDRAMINE HYDROCHLORIDE], for which the GI50 with 786-0 was > 100 µM (inactive); with COLO 205, > 100 µM (inactive); with EKVX it was > 100 µM (inactive); with HOP-62, > 100 µM (inactive); in the experiment with HOP-92, 25 µM (inactive); with Hs-578T, 66.7 µM (inactive). Further, the GI50 with IGROV-1, in the experiment with KM12, with MCF7, with Malme-3M, in the experiment on NCI-H226 and in the experiment with NCI-H522 was > 100 µM (inactive) throughout. Besides, the GI50 in the experiment on OVCAR-4 is > 100 µM (inactive); in the experiment on OVCAR-5, > 100 µM (inactive); in the experiment on RPMI-8226 it was 84.3 µM (inactive); with T47D, > 100 µM (inactive).
In the case of `O=CC1C(Cl)=Nc2nc3ccccc3n2C1c1ccccc1` (stereo not given), the GI50 with 786-0 was 15.6 µM (inactive); in the experiment with COLO 205, 19.2 µM (inactive); in the experiment with EKVX it was 25.2 µM (inactive); in the experiment with HOP-62, 18.1 µM (inactive); in the experiment with HOP-92, 10.4 µM (inactive); in the experiment with Hs-578T, 0.741 µM (active). For the same molecule, the GI50 was 15.9 µM (inactive) in the experiment on IGROV-1; 23.4 µM (inactive) in the experiment with KM12; 20.4 µM (inactive) with MCF7; 23.9 µM (inactive) in the experiment with Malme-3M; 20.2 µM (inactive) in the experiment on NCI-H226; 14.3 µM (inactive) in the experiment with NCI-H522. Also, the GI50 was 15.2 µM (inactive) in the experiment with OVCAR-4; 23.2 µM (inactive) in the experiment with OVCAR-5; 14 µM (inactive) in the experiment on RPMI-8226; 18.1 µM (inactive) in the experiment on SF-539; 25.5 µM (inactive) in the experiment on SNB-19; 17.1 µM (inactive) with T47D.
On to `CN(C)CCCSc1nc2ccccc2[nH]1`, for which the GI50 with 786-0, in the experiment on COLO 205, in the experiment with EKVX, with HOP-62, in the experiment with HOP-92 and with Hs-578T was > 100 µM (inactive) each time. For the same molecule, the GI50 with IGROV-1, in the experiment with KM12, in the experiment with MCF7, in the experiment with Malme-3M, in the experiment on NCI-H226 and with NCI-H522 was > 100 µM (inactive) each time. For the same molecule, the GI50 in the experiment with OVCAR-4, with OVCAR-5, with RPMI-8226, in the experiment with SK-OV-3, in the experiment on SNB-19 and in the experiment with T47D was > 100 µM (inactive) in each case.
